# Measurements: ChEMBL document CHEMBL1944605, “Amides of xanthurenic acid as zinc-dependent inhibitors of Lp-PLA(2)” (Bioorg Med Chem Lett, 2012)
# Assays:
# [1] = biological target: T1, Platelet-activating factor acetylhydrolase (Homo sapiens, UniProt Q13093); experiment: Inhibition of human plasma lipoprotein-associated phospholipase A2 using 2-thio-PAF as substrate preincubated for 20 mins measured 1 hr post substrate addition by spectrophotometric analysis
# T1 sequence (Q13093 whole entry): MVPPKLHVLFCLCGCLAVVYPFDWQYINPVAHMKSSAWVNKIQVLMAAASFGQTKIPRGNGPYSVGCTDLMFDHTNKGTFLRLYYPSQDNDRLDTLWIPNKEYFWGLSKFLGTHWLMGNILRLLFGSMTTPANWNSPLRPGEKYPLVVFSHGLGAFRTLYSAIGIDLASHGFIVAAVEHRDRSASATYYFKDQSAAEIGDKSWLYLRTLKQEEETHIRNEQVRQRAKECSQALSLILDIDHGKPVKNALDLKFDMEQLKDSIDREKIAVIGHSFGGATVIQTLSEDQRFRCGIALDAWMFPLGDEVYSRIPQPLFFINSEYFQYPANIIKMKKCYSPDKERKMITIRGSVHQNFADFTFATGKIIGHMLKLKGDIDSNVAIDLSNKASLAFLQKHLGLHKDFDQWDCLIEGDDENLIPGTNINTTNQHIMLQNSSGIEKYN
# [2] = biological target: T1, Platelet-activating factor acetylhydrolase; experiment: Inhibition of human plasma lipoprotein-associated phospholipase A2 using 2-thio-PAF as substrate preincubated for 20 mins measured 1 hr post substrate addition by spectrophotometric analysis
IC50 [1] [µM],IC50 [2] [µM],SMILES
> 100,> 100,O=C(Nc1ccccc1)c1ccc2cccc(O)c2n1
> 100,> 100,O=C(O)c1cc(O)c2cccc(O)c2n1 [XANTHURENATE]

SMILES,IC50 [1] [µM],IC50 [2] [µM]
Oc1cccc2cccnc12 [OXYQUINOLINE],> 100,> 100
